GI50 and TGI data for seven compounds are collected here from PubChem BioAssay (NCI).

Each structure is given as a SMILES string.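 Grown in 96-well plates, cells were treated for 48 hours with each compound at five concentrations. Insufficient inhibition: endpoint recorded as highest concentration tested. Abbreviation: GI50, concentration required for 50% inhibition of growth. TGI marks complete inhibition of growth.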

Test systems include UO-31 renal; SN12C renal; IGROV1 ovarian; A498 renal; HCC-2998 colon; TK-10 renal; MALME-3M melanoma; OVCAR-4 ovarian; HCT-116 colon; CAKI-1 renal.
Common to all, as to assay: growth of human tumour cells (NCI), 48 h

For the compound `O=C(Nc1ccc(Br)c(Cl)c1)c1cc(F)ccc1O`, the GI50 in the experiment on UO-31 renal is 153 nM; in the experiment with SN12C renal it was 533 nM; with IGROV1 ovarian, 682 nM; in the experiment with A498 renal, 162 nM; with HCC-2998 colon, 1630 nM; in the experiment on TK-10 renal, 1920 nM. The GI50 in the experiment on MALME-3M melanoma was 263 nM; in the experiment on OVCAR-4 ovarian, 974 nM; in the experiment with HCT-116 colon, 423 nM; in the experiment with CAKI-1 renal, 826 nM. In addition, the TGI is 1890 nM in the experiment on UO-31 renal; 8910 nM in the experiment with SN12C renal; above 50000 nM with IGROV1 ovarian; 1030 nM with A498 renal; above 22000 nM in the experiment with HCC-2998 colon; 29800 nM in the experiment with TK-10 renal. Further, the TGI with MALME-3M melanoma is 1990 nM; in the experiment on OVCAR-4 ovarian, above 50000 nM; in the experiment on HCT-116 colon it was 2080 nM; in the experiment with CAKI-1 renal, 3460 nM.
For the compound `COc1ccc(Nc2ccnc(NCCCNc3ccnc4cc(Cl)ccc34)n2)cc1`, the GI50 is 879 nM in the experiment with UO-31 renal; 1590 nM with SN12C renal; 1480 nM in the experiment on IGROV1 ovarian; 659 nM in the experiment with A498 renal; 1010 nM in the experiment with HCC-2998 colon; 1540 nM in the experiment with TK-10 renal. Besides, the GI50 is 1360 nM in the experiment with MALME-3M melanoma, 1350 nM in the experiment on OVCAR-4 ovarian, 374 nM in the experiment on HCT-116 colon and 1150 nM in the experiment with CAKI-1 renal. In addition, the TGI with UO-31 renal turned out to be 2180 nM; in the experiment with SN12C renal, 8940 nM; in the experiment with IGROV1 ovarian, 4140 nM; in the experiment on A498 renal it was 2540 nM; in the experiment on HCC-2998 colon it was 2610 nM; in the experiment on TK-10 renal, 3170 nM. The TGI is 3080 nM with MALME-3M melanoma, 6220 nM in the experiment with OVCAR-4 ovarian, 1540 nM in the experiment with HCT-116 colon and 2410 nM in the experiment with CAKI-1 renal.
In the case of `Clc1ccc(CO/N=C(\Cn2ccnc2)c2ccc(Cl)cc2Cl)c(Cl)c1`, the GI50 in the experiment on UO-31 renal was 1340 nM; with SN12C renal, 1440 nM; in the experiment on IGROV1 ovarian it was 1920 nM; in the experiment on A498 renal, 1320 nM; in the experiment on HCC-2998 colon, 1730 nM; in the experiment with TK-10 renal, 1810 nM. In addition, the GI50 was 1660 nM with MALME-3M melanoma, 1360 nM in the experiment with OVCAR-4 ovarian, 1500 nM in the experiment on HCT-116 colon and 1380 nM with CAKI-1 renal. For the same compound, the TGI in the experiment with UO-31 renal was 2790 nM; in the experiment with SN12C renal it was 2930 nM; with IGROV1 ovarian, 3920 nM; in the experiment with A498 renal it was 2650 nM; in the experiment with HCC-2998 colon, 3420 nM; in the experiment with TK-10 renal it was 3250 nM. In addition, the TGI in the experiment on MALME-3M melanoma worked out at 3360 nM; in the experiment with OVCAR-4 ovarian it was 2670 nM; in the experiment on HCT-116 colon, 3190 nM; in the experiment on CAKI-1 renal, 3390 nM.
In the case of `C=C[C@]1(C)C=C2C(=O)[C@@]3(O)OC(=O)[C@@]4(CCCC(C)(C)[C@H]34)[C@@]2(O)CC1`, the GI50 was 1310 nM with UO-31 renal; 1960 nM in the experiment on SN12C renal; 2160 nM in the experiment with IGROV1 ovarian; 1510 nM with A498 renal; 2140 nM in the experiment with HCC-2998 colon; 1490 nM with TK-10 renal. Further, the GI50 is 926 nM in the experiment with MALME-3M melanoma, 1050 nM in the experiment on OVCAR-4 ovarian, 1300 nM in the experiment with HCT-116 colon and 1330 nM in the experiment with CAKI-1 renal. The TGI is 2660 nM in the experiment on UO-31 renal; 4820 nM with SN12C renal; 4580 nM in the experiment on IGROV1 ovarian; 3600 nM in the experiment on A498 renal; 3810 nM with HCC-2998 colon; 2920 nM in the experiment with TK-10 renal. The TGI in the experiment on MALME-3M melanoma amounted to 2800 nM; in the experiment on OVCAR-4 ovarian, 2870 nM; in the experiment with HCT-116 colon it was 2860 nM; in the experiment with CAKI-1 renal, 3020 nM.
Turning to `CCC[CH2][Sn]([CH2]CCC)([S]C1=NCCS1)[S]C1=NCCS1`, the GI50 is 1130 nM in the experiment with UO-31 renal; 502 nM with SN12C renal; 1300 nM in the experiment on IGROV1 ovarian; 507 nM in the experiment on A498 renal; 654 nM with HCC-2998 colon; 390 nM in the experiment with TK-10 renal. Besides, the GI50 in the experiment on MALME-3M melanoma was 157 nM; with OVCAR-4 ovarian it was 964 nM; in the experiment on HCT-116 colon, 615 nM; in the experiment on CAKI-1 renal, 92.8 nM. Besides, the TGI amounted to 2510 nM in the experiment on UO-31 renal; 1820 nM in the experiment on SN12C renal; 2740 nM in the experiment on IGROV1 ovarian; 1310 nM with A498 renal; 1940 nM with HCC-2998 colon; 1110 nM with TK-10 renal. Moreover, the TGI amounted to 555 nM with MALME-3M melanoma, 2240 nM with OVCAR-4 ovarian, 1910 nM in the experiment with HCT-116 colon and 510 nM in the experiment on CAKI-1 renal.
Consider `COc1cc(C(=O)n2nc(N3CCN(C)CC3)c3cc(N)ccc32)cc(OC)c1OC`, for which the GI50 in the experiment on UO-31 renal is 2870 nM; in the experiment on SN12C renal, 4420 nM; in the experiment with IGROV1 ovarian, 4880 nM; in the experiment with A498 renal, 2820 nM; in the experiment with HCC-2998 colon it was 3600 nM; in the experiment with TK-10 renal, 15600 nM. Further, the GI50 with MALME-3M melanoma was 5120 nM; in the experiment on OVCAR-4 ovarian it was 4170 nM; in the experiment with HCT-116 colon, 3840 nM; in the experiment on CAKI-1 renal, 4520 nM. Moreover, the TGI in the experiment on UO-31 renal was 18100 nM; in the experiment on SN12C renal, above 100000 nM; with IGROV1 ovarian, above 100000 nM; with A498 renal it was 7120 nM; in the experiment with HCC-2998 colon it was 14300 nM; with TK-10 renal it was above 100000 nM. Further, the TGI was 50300 nM in the experiment with MALME-3M melanoma, above 100000 nM with OVCAR-4 ovarian, above 100000 nM with HCT-116 colon and above 100000 nM with CAKI-1 renal.
As to `ON(CCc1ccccn1)Cc1ccccc1`, the TGI in the experiment with UO-31 renal, with SN12C renal, in the experiment on IGROV1 ovarian, in the experiment with A498 renal, with HCC-2998 colon and in the experiment with TK-10 renal was above 100000 nM throughout. Besides, the TGI in the experiment on MALME-3M melanoma, in the experiment with OVCAR-4 ovarian, with HCT-116 colon and with CAKI-1 renal was above 100000 nM in each case.
